Source: PubChem BioAssay AID1549 (Sanford-Burnham Center for Chemical Genomics, 2009)
Calls of active or inactive are those of the source. No rule for the calls is given here.

target: Influenza A virus M2 proton channel (A/TW/4845/1999 H1N1); test: NMR binding screen, influenza A virus M2 proton channel, Kd (AID 1549); conditions: M2 protein

Q: How did the Kd turn out when `Cc1ccc(S(=O)(=O)/N=C2\NC(=O)CS2)cc1` was run?
A: > 4 mM (inactive)

Q: `CN1CCN(c2nc3c(c(=O)[nH]2)CCCC3)CC1` was tested. Which Kd did it give?
A: > 4 mM (inactive)

Q: For `CN1CCC(NC(=O)Cc2c(F)cccc2Cl)CC1`, which Kd is on record?
A: > 4 mM (inactive)

Q: How did the Kd turn out when `Cc1cc(N)ccc1NC(=O)c1ccco1` was run?
A: > 4 mM (inactive)

Q: Which Kd does the source give for `COC(=O)/C(C)=C\CC12OC(C)(C)C3CC(C=C4C(=O)c5c(OC)c6c(c(CC=C(C)C)c5OC431)OC(C)(CCC=C(C)C)C=C6)C2=O` (centres undefined) here?
A: > 4 mM (inactive)

Q: For `CC(=O)c1c(C)nc2ccccc2c1N`, which Kd is on record?
A: > 4 mM (inactive)

Q: Which Kd does the source give for `Cc1cc(C)n(CC(=O)O)n1` here?
A: > 4 mM (inactive)

Q: Which Kd does the source give for `CC(C)NC(=O)c1cc(-n2cnnc2)ccc1Cl` here?
A: > 4 mM (inactive)

Q: How did the Kd turn out when `COc1cc2c3cc1Oc1cc(ccc1O)C[C@@H]1c4c(cc(OC)c(O)c4Oc4ccc(cc4)C[C@@H]3N(C)CC2)CC[N+]1(C)C` was run?
A: > 4 mM (inactive)

Q: How did the Kd turn out when `O=C(Nc1ccccc1)NC1CCS(=O)(=O)C1` (centres undefined) was run?
A: > 4 mM (inactive)

Q: How did the Kd turn out when `CN(C)S(=O)(=O)c1cccc(N)c1` was run?
A: > 4 mM (inactive)

Q: For `Cc1occc1C(=O)N1CCN(S(C)(=O)=O)CC1`, which Kd is on record?
A: > 4 mM (inactive)

Q: How did the Kd turn out when `Cc1cc(C(=O)N2CCC3(CC2)OCCO3)cs1` was run?
A: > 4 mM (inactive)

Q: With `Cc1cccn2cc(CNc3ccccc3)nc12` as the molecule, how does the Kd read?
A: > 4 mM (inactive)

Q: With `CC1(C)NC(=O)N(CCOc2ccc3c(c2)CCC3)C1=O` as the molecule, how does the Kd read?
A: > 4 mM (inactive)

Q: `CC1=NNC(=O)C1CCc1ccncc1` (centres undefined) was tested. Which Kd did it give?
A: > 4 mM (inactive)

Q: With `O=C(O[C@@H]1Cc2c(O)cc(O)cc2O[C@@H]1c1ccc(O)c(O)c1)c1cc(O)c(O)c(O)c1` as the molecule, how does the Kd read?
A: > 4 mM (inactive)

Q: Which Kd does the source give for `Nc1cc(F)nc(F)n1` here?
A: > 4 mM (inactive)

Q: `Cc1noc(C)c1C(=O)N1CCC(Cc2ccccc2)CC1` was tested. Which Kd did it give?
A: > 4 mM (inactive)

Q: How did the Kd turn out when `Nc1ccc2c(c1)OCCO2` was run?
A: > 4 mM (inactive)

Q: With `CC(C)=CC(=O)Nc1ccc2c(c1)OCO2` as the molecule, how does the Kd read?
A: > 4 mM (inactive)

Q: `CC(=O)c1cc2c(s1)SCC(=O)N2` was tested. Which Kd did it give?
A: > 4 mM (inactive)

Q: With `CC(=O)Nc1cnn(Cc2ccc(Br)cc2)c1` as the molecule, how does the Kd read?
A: > 4 mM (inactive)

Q: Which Kd does the source give for `C=CCCCCCCCCCCCc1ccco1` here?
A: > 4 mM (inactive)

Q: For `CN(C(=O)NC1CCS(=O)(=O)C1)C1CCCCC1` (centres undefined), which Kd is on record?
A: > 4 mM (inactive)

Q: `CN=C(C)c1c(O)n(C)c(=O)n(C)c1=O` was tested. Which Kd did it give?
A: > 4 mM (inactive)

Q: How did the Kd turn out when `Nc1nc(CSc2ncn(-c3ccccc3)n2)cs1` was run?
A: > 4 mM (inactive)

Q: With `Nc1nc2ncc(=O)[nH]c2c(=O)[nH]1` as the molecule, how does the Kd read?
A: > 4 mM (inactive)

Q: With `O=c1c(O)c(-c2ccccc2)oc2ccc3occc3c12` as the molecule, how does the Kd read?
A: > 4 mM (inactive)

Q: With `c1ccc(-c2noc(-c3ccc4c(c3)OCO4)n2)nc1` as the molecule, how does the Kd read?
A: > 4 mM (inactive)

Q: `Cc1scc(C(=O)Nn2cnnc2)c1-c1ccccc1` was tested. Which Kd did it give?
A: > 4 mM (inactive)

Q: `Nc1ccccc1C(=O)CC(N)C(=O)O` (centres undefined) was tested. Which Kd did it give?
A: > 4 mM (inactive)

Q: `CCOC(=O)CC1NCCNC1=O` (centres undefined) was tested. Which Kd did it give?
A: > 4 mM (inactive)

Q: Which Kd does the source give for `CC1CC[C@]2(NC1)O[C@H]1CC3C4CC[C@H]5C[C@@H](O)CC[C@]5(C)C4CC[C@]3(C)[C@H]1[C@@H]2C` (some centres undefined) here?
A: > 4 mM (inactive)

Q: `CC1SC(=NC(=O)c2ccncc2)NC1=O` (centres undefined) was tested. Which Kd did it give?
A: > 4 mM (inactive)

Q: `OC1CC2CCC1C2` (centres undefined) was tested. Which Kd did it give?
A: > 4 mM (inactive)

Q: With `CC(=O)O[C@H]1CCC2(C)C3=C(CCC2C1(C)C)[C@@]1(C)CC[C@@H](C(C)CCC=C(C)C)[C@]1(C)CC3` (some centres undefined) as the molecule, how does the Kd read?
A: > 4 mM (inactive)

Q: Which Kd does the source give for `Nc1cccc(S(N)(=O)=O)c1` here?
A: > 4 mM (inactive)

Q: Which Kd does the source give for `COc1cc2cc[n+]3cc4c(OC)c(OC)ccc4cc3c2cc1OC` here?
A: > 4 mM (inactive)

Q: How did the Kd turn out when `Cc1occc1C(=O)NCc1ccccc1F` was run?
A: > 4 mM (inactive)

Q: `Oc1ccccc1-c1nnco1` was tested. Which Kd did it give?
A: > 4 mM (inactive)

Q: `CC(=O)Nc1ccc(Nc2nnc(C)c(=O)[nH]2)cc1` was tested. Which Kd did it give?
A: > 4 mM (inactive)

Q: With `Cn1c(-c2ccccc2F)n[nH]c1=S` as the molecule, how does the Kd read?
A: > 4 mM (inactive)

Q: Which Kd does the source give for `COc1ccccc1-c1cn[nH]c(=S)n1` here?
A: > 4 mM (inactive)

Q: For `Cc1ccn(S(=O)(=O)c2ccc(C(C)(C)C)cc2)n1`, which Kd is on record?
A: > 4 mM (inactive)

Q: With `Clc1ccc(-c2nnc3ccccn23)cc1` as the molecule, how does the Kd read?
A: > 4 mM (inactive)

Q: Which Kd does the source give for `Cc1cc(O)c2c(c1O)C(=O)c1c(O)cc(C)c(O)c1C2=O` here?
A: > 4 mM (inactive)

Q: Which Kd does the source give for `Cc1ccc(N)nc1` here?
A: > 4 mM (inactive)

Q: For `O=c1c(-c2ccccc2)coc2cc(O)cc(O)c12`, which Kd is on record?
A: > 4 mM (inactive)

Q: With `CCC(CCC(C)[C@H]1CCC2C3CC=C4C[C@@H](O)CC[C@]4(C)C3CC[C@@]21C)C(C)C` (some centres undefined) as the molecule, how does the Kd read?
A: > 4 mM (inactive)

Q: How did the Kd turn out when `COc1cccc(NC(=O)c2ncn[nH]2)c1` was run?
A: > 4 mM (inactive)

Q: `COc1cc(C(C)=O)ccc1OCC(O)Cn1ccnc1` (centres undefined) was tested. Which Kd did it give?
A: > 4 mM (inactive)

Q: Which Kd does the source give for `CC(=O)c1cccc(NC(=O)NN2CCOCC2)c1` here?
A: > 4 mM (inactive)

Q: For `O=C(O)c1cn(-c2ccccc2)nc1-c1ccncc1`, which Kd is on record?
A: > 4 mM (inactive)

Q: With `NC(Cc1c[nH]c2ccccc12)C(=O)O` (centres undefined) as the molecule, how does the Kd read?
A: > 4 mM (inactive)

Q: Which Kd does the source give for `O=c1/c(=C/c2ccccc2F)sc2ncnn12` here?
A: > 4 mM (inactive)

Q: `c1ccc(SCc2nc(-c3ccncc3)no2)cc1` was tested. Which Kd did it give?
A: > 4 mM (inactive)

Q: `O=C(c1ccco1)N1CCN(c2ccc(Cl)cc2)CC1` was tested. Which Kd did it give?
A: > 4 mM (inactive)

Q: Which Kd does the source give for `COc1cc(C)c(S(=O)(=O)N2CCN(C)CC2)cc1C` here?
A: > 4 mM (inactive)
